How the values were obtained:
Assay type in all cases: cell-based
[1] = system: C3H10T½ mouse embryonic fibroblasts; test: EdU proliferation assay (flow cytometry); conditions: C3H10T½ cells, 1% FBS; for stimulation of the PDGF ligand/receptor pathway inferred from inhibition of EdU levels by AG1296 cotreatment: cotreatment with 10 μM AG1296; for stimulation of proliferation relative to 1% FBS: 24 hr, 20 ng/ml PDGF, 2 μg/ml peptides
Protocol: FIG. 8. Proliferation of C3H10T½ Cells Following Treatment with PDGF and Novel PDGF Mimetic Peptides. Cultured C3H10T½ mouse embryonic fibroblast cells were treated with 20 ng/ml recombinant PDGF−AB or PDGF−BB protein ligands, and 2 μg/ml of novel PDGF mimetics JC5 or JC5a for 24 hr, in the presence of 1% fetal bovine serum (FBS). Percent proliferating cell was determined after a 2 hr pulse with nucleotide analogue EdU at the end of the incubation period. […] Co-treatment of protein/peptides with 10 μM of PDGF receptor antagonist, AG1296, confirmed that PDGF-BB-stimulated proliferation occurred via the PDGF ligand/receptor pathway. […] Error bars represent ±SD, n=3. Statistical analysis was using One-Way Anova: * p<0.05; ** p<0.01; *** p<0.001; **** p<0.0001. The mitotic effects of PDGF mimetic peptides JC5 and JC5a were tested using cultured C3H10T½ mouse embryonic fibroblasts. Proliferation was assayed after a pulse of nucleotide analogue 5-ethynyl-2′-deoxyuridine (EdU) and fluorescent detection using flow cytometry. Cells were treated with 20 ng/ml PDGF−BB or PDGF−AB, and 2 μg/ml of peptides JC5 or JC5a, in the presence of 1% fetal bovine serum (FBS) and DMEM for 24 hr. 10% FBS was used as a positive control, and co-treatments with specific PDGF receptor antagonist, AG1296, was used to ascertain whether proliferation occurred via the PDGF ligand/receptor pathway. Assays were performed in biological triplicate.

[2] = system: primary human coronary artery endothelial cells (HCAECs); test: Vascular tube forming assay on Geltrex; conditions: 24 hours; for tube length: 50 ng/ml PDGF, 5 μg/ml JC5, 10 μM AG1296, mean (±SD); for increased tube length compared to the negative control (Mean Diff.): vs AG1296+PDGF−AB (307.7 μm); for increased tube length compared to the no treatment control (Mean Diff.): vs no treatment control (305 μm)
Protocol: FIG. 4. Tube formation of Human Coronary Artery Endothelial Cells Treated with PDGF and PDGF Mimetic Peptide JC5. Human coronary artery endothelial cells treated with 50 ng/ml of PDGF−AB and PDGF−BB produced longer tubes than untreated cells and cells treated with the PDGF receptor inhibitor AG1296+PDGF−AB. […] Error bars represent ±SD, n=3/group.
PDGF has a well-established role in angiogenesis in vivo. To simulate this function in vitro a vascular tube forming assay on primary human coronary artery endothelial cells (HCAECs) was carried out. Cells were seeded on top of 3D growth factor reduced Geltrex basement membrane extract and incubated for 24 hours following treatment with the PDGF−AB, PDGF-BB, no treatment control, AG1296+PDGF−AB negative control, and peptides JC5 and JC5a. Over the course of 24 hours the cells form tubes throughout the gel. PDGF is reported to facilitate tube formation of endothelial cells in in vitro 3D assays.
Cells treated with 50 ng/ml of PDGF−AB, PDGF-BB, and 5 μg/ml of JC5 produced longer more uniform tubes than untreated cells and cells treated with the negative control 10 μM PDGF receptor inhibitor AG1296 co-treated with 50 ng/ml PDGF−AB (FIG. 4). The positive controls PDGF−AB and PDGF−BB produced tubes that were 560.7 μm (±53.93) and 616.3 μm (±39.07), respectively. […] The no treatment control and AG1296+PDGF−AB negative control produced tubes that were 305 μm and 307.7 μm, respectively. […] In summary, JC5 has similar vascular tube forming ability to recombinant human PDGF−AB and PDGF-BB.

[3] = system: C2C12 mouse myoblasts; test: Scratch migration (chemotaxis) assay on C2C12 cells; conditions: for migration of cells across the scratch: 24 hours at 37° C., 10 ng/ml PDGF, 1 μg/ml peptides, mean (±SD); for increase in migration compared to the negative control (Mean Diff) / increase in migration compared to the no treatment control (Mean Diff.): 24 hours; for increase in migration compared to the negative control (Mean Diff): vs AG1296+PDGF−AB negative control; for increase in migration compared to the no treatment control (Mean Diff.): vs no treatment control
Protocol: FIG. 2. Migration of C2C12 Mouse […] Cells Treated with PDGF and peptides JC5 and JC5a. C2C12 mouse fibroblast cells migrate across the scratch over 24 hours. Cells were treated with 10 ng/ml PDGF−AB (n=6), PDGF−BB (n=6), and 1 μg/ml of novel PDGF mimetic JC5 (n=6) and JC5a (n=3). […] There was also no statistically significant difference between the PDGF mimetic peptides and PDGF−AB and −BB positive controls. Error bars represent ±SD. The function of Compounds Ia (also referred to herein as JC5) and Ib (also referred to herein as JC5a) has been tested in vitro on the continuous cell line, C2C12 mouse myoblasts. In these in vitro assays recombinant PDGF−AB and −BB have been used as positive controls along with a serum starved no treatment control and the PDGF receptor inhibitor AG1296 co-treated with PDGF−AB as a negative control. The in vitro assays were designed to assess the major known functions of PDGF whilst also considering functions that are relevant to its in vivo applications. These functions were chemotaxis, collagen contraction, vascular tube formation and activation of the PDGF receptors via phosphorylation of Akt and Erk. Chemotaxis was assessed by making a scratch through a 2D culture of C2C12 cells following treatment with the four controls and the peptides JC5 and JC5a. They were then incubated for 24 hours at 37° C. Migration of the cells across the scratch at the conclusion of the incubation was measured and compared to the relevant controls described above. PDGF is a well-established mediator of chemotaxis and is expected to increase migration of the cells across the scratch over the course of 24 hours post treatment.

Compound | stimulation of the PDGF ligand/receptor pathway inferred from inhibition of EdU levels by AG1296 cotreatment [1] | stimulation of proliferation relative to 1% FBS [1] | tube length [2] [μm] | increased tube length compared to the negative control (Mean Diff.) [2] [μm] | increased tube length compared to the no treatment control (Mean Diff.) [2] [μm] | migration of cells across the scratch [3] [%] | increase in migration compared to the negative control (Mean Diff) [3] [%] | increase in migration compared to the no treatment control (Mean Diff.) [3] [%]
PDGF Loop III dimer HSA (CVRKIEIVRKK)2(Peg3)2EYEK(Palm)EYE-C′ [JC5] | weak stimulation of the PDGF ligand/receptor pathway | did not significantly stimulate proliferation | 591.3 | 283.7 | 286.3 | 68.28 | 51.71 | 47.96
CCCCCCCCCCCCCCCC(=O)NCCCC[C@H](NC(=O)[C@H](CCC(=O)O)NC(=O)[C@H](Cc1ccc(O)cc1)NC(=O)[C@@H](CCC(=O)O)NC(=O)CCOCCOCCOCCNC(=O)CCOCCOCCOCCNC(=O)[C@@H](CCCCN)NC(=O)[C@@H](CCCCN)NC(=O)[C@@H](CCCNC(=N)N)NC(=O)[C@@H](NC(=O)[C@@H](NC(=O)[C@H](CCC(=O)O)NC(=O)[C@@H](NC(=O)[C@H](CCCCN)NC(=O)[C@@H](CCCNC(=N)N)NC(=O)[C@H](NC(=O)[C@H](N)CSSC[C@@H](N)C(=O)N[C@@H](C(=O)N[C@H](CCCNC(=N)N)C(=O)N[C@@H](CCCCN)C(=O)N[C@H](C(=O)N[C@@H](CCC(=O)O)C(=O)N[C@H](C(=O)N[C@H](C(=O)N[C@H](CCCNC(=N)N)C(=O)N[C@H](CCCCN)C(=O)N[C@H](CCCCN)C(=O)NCCOCCOCCOCCC(=O)NCCOCCOCCOCCC(=O)N[C@H](CCC(=O)O)C(=O)N[C@@H](Cc1ccc(O)cc1)C(=O)N[C@@H](CCC(=O)O)C(=O)N[C@@H](CCCCNC(=O)CCCCCCCCCCCCCCC)C(=O)N[C@@H](CCC(=O)O)C(=O)N[C@@H](Cc1ccc(O)cc1)C(=O)N[C@@H](CCC(=O)O)C(N)=O)C(C)C)[C@H](C)CC)[C@@H](C)CC)C(C)C)C(C)C)[C@@H](C)CC)[C@H](C)CC)C(C)C)C(=O)N[C@@H](CCC(=O)O)C(=O)N[C@@H](Cc1ccc(O)cc1)C(=O)N[C@@H](CCC(=O)O)C(N)=O [JC5a, PDGF Loop III dimer USA dimer (CVRKIEIVRKK)2(Peg3)2(EYEK(Palm)EYE)2-C′] |  | did not significantly stimulate proliferation |  |  |  | 79.88 | 62.71 | 59.56
PDGF−AB: recombinant human PDGF−AB, AB heterodimer of recombinant PDGF, positive control | weak stimulation of the PDGF ligand/receptor pathway | did not significantly stimulate proliferation | 560.7 | 253 | 255.7 |  |  | 

— patent publication US20260085101A1, “NOVEL PLATELET DERIVED GROWTH FACTOR PEPTIDE MIMETIC” (THE UNIVERSITY OF SYDNEY, priority 2022, published 2026)
